Assay results as given in patent EP3884948A1, “CATHEPSIN INHIBITORS AND USES THEREOF” (Ecole Polytechnique Fédérale de Lausanne (EPFL), priority 2020, dated 2021).

Legend:
[1] = system: CTSS-His-WT and CTSS-His-Y132D; experiment: Mass spectrometry of peptide cleavage by purified CTSS; assay type: biochemical, human; details: after 15 minutes of incubation with purified CTSS-His-WT and CTSS-His-Y132D
Protocol: (§1) For mass spectrometry experiments, CTSS-His WT and Y132D were activated by incubation at 10 µg/mL in Assay buffer (50 mM NaOAc, 5 mM DTT, 250 mM NaCl, pH 4.5) at 37°C for 90 minutes. 2.5 µg of activated CTSS-His WT and Y132D were then co-incubated with 5 ug of peptide in Assay buffer (final volume: 300 µl) at 37°C for 15 or 30 minutes. The reaction was stopped by addition of 50 µM E64 (Selleckchem, cat #S7379) following the co-incubation. Control reactions were prepared by incubating 5 µg of peptide in 300 µl of Assay buffer at 37°C for 15 or 30 minutes. Control and digested peptides were acidified, desalted on C18 StageTips (Rappsilber et al., 2007) and dried by vacuum centrifugation. Samples were resuspended in LC-MS solvent A (2% Acetonitrile, 0.1% TFA) and equivalent sample amounts (3 to 10 ng) injections were performed. Nano-flow separations were achieved on a Dionex Ultimate 3000 RSLC nano UPLC system (Thermo Fischer Scientific) on-line connected with a Q-Exactive Mass-Spectrometer (Thermo Fischer Scientific). Samples were first trapped on a capillary C18 pre-column (Acclaim PepMap™ 100, 75 µm x 2cm) and then separated on a C18 home-made capillary column (ReproSil-Pur C18 AQ 1.9 µm; 50 cm x 75 µm ID) at 250 nl/min over a biphasic 60 min gradient ranging from 99% of solvent A (2% Acetonitrile and 0.1% Formic acid) to 90% of solvent B (90% Acetonitrile and 0.1% Formic acid). The mass spectrometer was operated in Data Dependent acquisition mode using a scan range of 200 to 1500 m/z. MS resolution was set to 70K and MS2 resolution to 17,5K. An isolation window of 2 m/z was used when selecting ions to fragment by HCD and the Normalized Collision Energy (NCE) was set to 27. Data were inspected and dedicated traces extracted with Xcalibur Qual Browser software (Thermo Fischer Scientific). The peptides used were the following: CD74 ([…]) (SEQ ID NO: 16), HSPA1/8 ([…]) (SEQ ID NO: 17), OVA ([…]) (SEQ ID NO: 18), HA ([…]) (SEQ ID NO: 19).

[2] = target: T1, CTSS-His-WT and CTSS-His-Y132D (Homo sapiens, UniProt P25774); experiment: as above; assay type: biochemical; details: incubated with purified CTSS-His-WT for 30 minutes
T1 construct: made in house; host or cells: HEK293
Protocol: as §1

| Sequence | peptides cleaved [1] | cleavage by CTSS [2] |
| --- | --- | --- |
| EEIERMVQEAEKYKAEDEVQ [SEQ ID NO: 17] | 35-40% | – |
| IKVYLPRMKMEEKYNLTSVL [SEQ ID NO: 18] | – | can cleave |
| NVKNLYEKVKSQLKNNAKEI [SEQ ID NO: 19] | – | can cleave |
| QLENLRMKLPKPPKPVSKMR [SEQ ID NO: 16] | completely cleaved | – |
